The values below come from ChEMBL document CHEMBL1201862, “PubChem BioAssay data set” (2004).

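Test compounds were applied to cells in 96-well plates for 48 hours at 5 doses. Abbreviation: GI50, concentration required for 50% inhibition of growth.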 Active and inactive are the calls of the source. Cut-off read from the data, not from the text of the source: active = GI50 up to about 1.1 µM and inactive = higher.

Some test systems named below: 786-0; A498; ACHN; CAKI-1; HCC 2998; MCF7; MDA-MB-231; MDA-N; MOLT-4; Malme-3M; NCI-H226; NCI-H460; PC-3; SF-539; SK-MEL-28; SK-OV-3; OVCAR-8; SNB-75.
Holding throughout (experiment): NCI-60 cell line screen, 48 h

Consider `O=C(/C=C/c1ccc(O)c(O)c1)OCCCc1ccccc1`, for which the GI50 was 4.39 µM (inactive) in the experiment on 786-0; 16.4 µM (inactive) in the experiment on A498; 5.32 µM (inactive) in the experiment with ACHN; 20.6 µM (inactive) in the experiment with CAKI-1; 20.4 µM (inactive) with HCC 2998; 12 µM (inactive) with MCF7. Besides, the GI50 in the experiment with MDA-MB-231 was 11.8 µM (inactive); in the experiment on MDA-N, 11.8 µM (inactive); with MOLT-4 it was 0.946 µM (active); in the experiment on Malme-3M, 12.1 µM (inactive); in the experiment on NCI-H226, 16 µM (inactive); in the experiment on NCI-H460, 20.2 µM (inactive). For the same compound, the GI50 with PC-3 was 8.85 µM (inactive); in the experiment on SF-539 it was 2.45 µM (inactive); in the experiment on SK-MEL-28, 15.3 µM (inactive); in the experiment with SK-OV-3, 23.6 µM (inactive).
As for `S=C(Nc1ccc2c(c1)oc1ccccc12)c1cccs1`, the GI50 in the experiment on 786-0 is 11.3 µM (inactive); in the experiment with A498 it was > 100 µM (inactive); in the experiment on ACHN, > 100 µM (inactive); with CAKI-1, 52.8 µM (inactive); in the experiment on HCC 2998, > 100 µM (inactive); in the experiment with MCF7, 24.1 µM (inactive). The GI50 in the experiment on MDA-MB-231 was 21.7 µM (inactive); in the experiment on MDA-N, > 100 µM (inactive); in the experiment on MOLT-4, > 100 µM (inactive); in the experiment with NCI-H226, > 100 µM (inactive); in the experiment with OVCAR-8, 18.7 µM (inactive); with PC-3, > 100 µM (inactive). Further, the GI50 in the experiment on SF-539 was 26.2 µM (inactive); with SK-MEL-28, > 100 µM (inactive); in the experiment with SK-OV-3 it was 37.9 µM (inactive).
As for `CC(C)(O)C1COC2=C1C(=O)c1ccccc1C2=O` (centres undefined), the GI50 in the experiment with 786-0 was 41.3 µM (inactive); in the experiment on A498, > 100 µM (inactive); in the experiment on ACHN it was 48.2 µM (inactive); with CAKI-1, 60.7 µM (inactive); with HCC 2998, > 100 µM (inactive); in the experiment on MCF7 it was 20.3 µM (inactive). Moreover, the GI50 in the experiment on MDA-MB-231 is 38.7 µM (inactive); with MDA-N, 18.6 µM (inactive); in the experiment on MOLT-4, 25.6 µM (inactive); in the experiment with NCI-H226, 32.5 µM (inactive); in the experiment on NCI-H460 it was 54 µM (inactive); with OVCAR-8 it was 22.5 µM (inactive). Moreover, the GI50 was 31.6 µM (inactive) in the experiment on PC-3; 43.6 µM (inactive) with SF-539; 23.2 µM (inactive) in the experiment with SK-MEL-28; > 100 µM (inactive) with SK-OV-3; 19.8 µM (inactive) in the experiment on SNB-75.
With `CCN(CC)C(=S)N/N=C/c1cc([N+](=O)[O-])ccc1O`, the GI50 was 2.99 µM (inactive) with 786-0; 2.25 µM (inactive) in the experiment on A498; 3.36 µM (inactive) with ACHN; 8.53 µM (inactive) in the experiment on HCC 2998; 2.22 µM (inactive) in the experiment on MCF7; 8.18 µM (inactive) in the experiment on MDA-MB-231. The GI50 with MDA-N was 5.43 µM (inactive); in the experiment with MOLT-4 it was 1.8 µM (inactive); in the experiment with Malme-3M, 6.68 µM (inactive); in the experiment on NCI-H226, 2.31 µM (inactive); with NCI-H460, 3 µM (inactive); in the experiment with OVCAR-8, 3.56 µM (inactive). Also, the GI50 in the experiment on PC-3 is 4.92 µM (inactive); with SF-539, 6.15 µM (inactive); with SK-MEL-28, 5.11 µM (inactive); in the experiment on SK-OV-3, 3.95 µM (inactive); with SNB-75 it was 9.27 µM (inactive).
Consider `N#CC1=C(N)C(C#N)(C#N)C(c2ccc(F)cc2)C=C1C1CC1` (centres undefined), for which the GI50 is 9.84 µM (inactive) in the experiment with 786-0; 11.4 µM (inactive) in the experiment on A498; 12.9 µM (inactive) in the experiment with ACHN; 15 µM (inactive) in the experiment with CAKI-1; 12.8 µM (inactive) in the experiment on HCC 2998; 5.09 µM (inactive) with MCF7. The GI50 is 16.5 µM (inactive) in the experiment on MDA-MB-231; 2.27 µM (inactive) in the experiment with MDA-N; 4.81 µM (inactive) with MOLT-4; 11.5 µM (inactive) in the experiment with Malme-3M; 5.2 µM (inactive) in the experiment on NCI-H460; 9.93 µM (inactive) in the experiment on OVCAR-8. Moreover, the GI50 was 10.2 µM (inactive) with PC-3; 0.597 µM (active) in the experiment on SF-539; 12.4 µM (inactive) in the experiment with SK-MEL-28; 8.93 µM (inactive) in the experiment on SK-OV-3; 6 µM (inactive) with SNB-75.
On to `COc1ccc(C#CC(=O)O)c(OC)c1`, for which the GI50 in the experiment on 786-0, with A498, in the experiment with ACHN, in the experiment on CAKI-1, with HCC 2998 and in the experiment with MCF7 was > 100 µM (inactive) each time. In addition, the GI50 in the experiment on MDA-MB-231, with MDA-N, in the experiment on MOLT-4, in the experiment with Malme-3M, in the experiment on NCI-H226 and in the experiment on NCI-H460 was > 100 µM (inactive) throughout. The GI50 in the experiment with OVCAR-8, in the experiment on PC-3, with SF-539, in the experiment on SK-MEL-28 and in the experiment on SK-OV-3 was > 100 µM (inactive) throughout.
As for `O=c1[nH]nc(Cc2ccccc2)n1/N=C/c1cccnc1`, the GI50 in the experiment with 786-0 was > 100 µM (inactive); in the experiment with A498, > 100 µM (inactive); in the experiment with ACHN, > 100 µM (inactive); in the experiment with CAKI-1 it was 12.4 µM (inactive); in the experiment with HCC 2998, > 100 µM (inactive); in the experiment on MCF7, > 100 µM (inactive). In addition, the GI50 in the experiment on MDA-MB-231, with MDA-N, in the experiment with MOLT-4, with Malme-3M, with NCI-H226 and in the experiment on NCI-H460 was > 100 µM (inactive) throughout. Moreover, the GI50 in the experiment with OVCAR-8, in the experiment with PC-3, with SF-539, with SK-MEL-28 and in the experiment on SNB-75 was > 100 µM (inactive) each time.
Take `O=C1C/C(=C\c2ccccc2)C(=O)c2ccccc2N1`: the GI50 with 786-0 was 19.5 µM (inactive); in the experiment with A498, 18.8 µM (inactive); in the experiment on ACHN, 25.1 µM (inactive); in the experiment on CAKI-1, 18.4 µM (inactive); in the experiment on HCC 2998, 19 µM (inactive); in the experiment on MCF7, 81.7 µM (inactive). Moreover, the GI50 is 23.8 µM (inactive) in the experiment on MDA-MB-231; 22.9 µM (inactive) with MDA-N; 45.5 µM (inactive) with MOLT-4; 17.5 µM (inactive) with Malme-3M; 24.3 µM (inactive) in the experiment on NCI-H226; 29.3 µM (inactive) in the experiment with NCI-H460. In addition, the GI50 with OVCAR-8 was 18.8 µM (inactive); in the experiment with PC-3 it was 23.9 µM (inactive); in the experiment with SF-539, 20.2 µM (inactive); with SK-MEL-28, 29.5 µM (inactive); in the experiment with SK-OV-3 it was 35.2 µM (inactive).
In the case of `C=C(C)C[C@H](Sc1nc2ccccc2s1)[C@H](C)O`, the GI50 in the experiment on 786-0 is 40.8 µM (inactive); with A498 it was 27.2 µM (inactive); with ACHN, > 100 µM (inactive); with CAKI-1 it was 70.1 µM (inactive); in the experiment with HCC 2998, 59.2 µM (inactive); in the experiment with MCF7, 38.3 µM (inactive). Further, the GI50 in the experiment on MDA-MB-231 was 73.6 µM (inactive); with MDA-N, 37 µM (inactive); with MOLT-4, 16.4 µM (inactive); with Malme-3M, 25.6 µM (inactive); with NCI-H226, 22.5 µM (inactive); in the experiment on NCI-H460, 45.3 µM (inactive). The GI50 with OVCAR-8 was 34.3 µM (inactive); in the experiment with PC-3, 22.6 µM (inactive); in the experiment with SF-539 it was 41.8 µM (inactive); in the experiment on SK-MEL-28 it was 41.4 µM (inactive).
